Like-named read-outs stand apart in the source and are kept apart here.
How the values were obtained:
[1] = biological target: T1, human recombinant JAK2 protein (Homo sapiens, UniProt O60674); assay: JAK2 Inhibition Assay (HTRF kinase assay); format: biochemical; conditions: human recombinant JAK2, 2.5 μM ATP substrate solution
T1 construct: purchased Carna Biosciences 08-045
How it was run: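 Recombinant human JAK2 was preincubated 15 min at room temperature with compound in buffer containing 5 mM MgCl2, 1 mM DTT and 0.01% Brij35. Substrate solution (2.5 μM ATP, 0.25 μM biotinylated TK substrate) was then added for 30 min. Phosphorylation was detected by HTRF (665/620 nm ratio; no-enzyme = 100% inhibition), and IC50 was fitted from an 8-point, 4-fold series.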

[2] = biological target: T2, human recombinant TYK2 protein (Homo sapiens, UniProt P29597); assay: TYK2 Inhibition Assay (HTRF kinase assay); format: biochemical; conditions: human recombinant TYK2, 11.25 μM ATP substrate solution
T2 construct: purchased Carna Biosciences 08-147
T2 sequence (P29597 871-1187 limits assumed): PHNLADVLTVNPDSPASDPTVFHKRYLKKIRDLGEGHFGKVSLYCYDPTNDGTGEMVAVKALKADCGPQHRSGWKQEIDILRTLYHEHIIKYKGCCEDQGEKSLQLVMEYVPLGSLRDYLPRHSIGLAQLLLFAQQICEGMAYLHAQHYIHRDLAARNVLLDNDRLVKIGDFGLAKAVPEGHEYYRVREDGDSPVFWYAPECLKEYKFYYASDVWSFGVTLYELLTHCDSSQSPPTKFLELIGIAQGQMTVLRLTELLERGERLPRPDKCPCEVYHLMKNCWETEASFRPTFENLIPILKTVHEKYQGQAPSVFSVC
How it was run: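 Recombinant human TYK2 was pre-incubated 15 min at room temperature with compound, then reacted for 40 min with biotinylated tyrosine-kinase substrate and ATP (substrate solution 11.25 μM ATP, 0.5 μM substrate; 5 mM MgCl2, 0.01% Brij35). Phosphorylation was read by HTRF 665/620 ratio, normalised to no-enzyme and no-compound controls, and IC50 was fitted from 8 4-fold dilutions.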

[3] = system: IL-12-induced IFN-γ secretion in NK92 cells; assay: Inhibition of IL-12-induced IFN-γ Secretion in NK92 Cells (ELISA); format: cell-based, human; conditions: 24 hours incubation, 8 concentration points, read-out: IC50 (NK92_IL12/IFNγ)
Experimental: Inhibition of IL-12-induced IFN-γ Secretion in NK92 Cells
The effect of the compounds of the present invention on IFN-γ secretion induced by IL-12 in NK92 cells was evaluated by an enzyme-linked immunosorbent assay (ELISA).
IL-12 receptor is mainly expressed in activated T-cells, NK cells (NK92 is a NK cell line), DC cells, and B-cells. When binding to IL-12, it activates JAK2/TYK2 signal transduction pathway within NK cells and T lymphocytes, thereby inducing secretion of IFN-γ.
The experimental method is generally described below:
The test compound was dissolved in DMSO to 2.5 mM, followed by a serial 4-fold dilution with DMSO to a minimum concentration of […]. Each concentration was further diluted 50-fold with an FBS-free MEMα medium (Gibco, 12561-056).
NK92 cells (Nanjing Cobioer, CBP60980) were cultured in a complete MEMα medium containing 12.5% FBS (Ausbian, VS500T), 12.5% horse serum (Gibco, 16050-122), 0.02 mM folic acid (Sigma, F8758), 0.2 mM inositol (Sigma, 17850), 0.55 mM β-mercaptoethanol (Gibco, 21985-023), 200 U/mL IL-2 (R&D Systems, 202-1L), and 100 U/mL penicillin (Thermofisher, 15140122). When covering 80-90% of the culture container surface, the cells were dispersed and plated on a 96-well plate (Thermofisher, 167425) with 100,000 cells per well (80 μL of the complete MEMα medium without IL-2). The 96-well plate was then incubated overnight in a 37° C./5% CO2 incubator.
After overnight incubation, 10 μL of the test compound and 10 μL of 50 ng/mL IL-12 (R & D Systems, 219-1L) were added to each well and mix gently, and the 96-well plate was incubated in the 37° C./5% CO2 incubator for additional 24 hours. The plate as centrifuged at 800 rpm for 10 minutes at room temperature and 50 μL of the supernatant from each well was transferred to another 96-well plate (Sigma, CLS3695) coated with anti-IFN-γ antibody. The amount of IFN-γ secretion was detected following the instruction from the Human IFN-γ DuoSet ELISA kit (R & D Systems, DY285B). In the experiment, the group with IL-12 and the test compound being replaced with the MEMα medium was the non-stimulated control group (100% inhibition), and the group with IL-12 and 0.2% DMSO was the stimulated group (0% inhibition). The percentage of inhibition on IL-12 induced IFN-γ secretion in NK-92 cells by the test compound was calculated using the following formula: Percentage of inhibition=100−100*(signalcompound−signalnon-stimulated control)/(signalstimulated control−signalnon-stimulated control)
The IC50 value of the test compound was calculated front 8 concentration points using the XLfit software (ID Business Solutions Ltd., UK) by the following formula: Y=Bottom+(Top−Bottom)/(1+10^((log IC50−X)×slope factor))
Where Y was the percentage of inhibition, X was the logarithm of the concentration of the test compound, Bottom was the bottom plateau value of the S-shaped curve, Top was the top plateau value of the S-shaped curve, and slope factor was the slope coefficient of the curve.

T1 sequence (O60674 826-1132 limits assumed): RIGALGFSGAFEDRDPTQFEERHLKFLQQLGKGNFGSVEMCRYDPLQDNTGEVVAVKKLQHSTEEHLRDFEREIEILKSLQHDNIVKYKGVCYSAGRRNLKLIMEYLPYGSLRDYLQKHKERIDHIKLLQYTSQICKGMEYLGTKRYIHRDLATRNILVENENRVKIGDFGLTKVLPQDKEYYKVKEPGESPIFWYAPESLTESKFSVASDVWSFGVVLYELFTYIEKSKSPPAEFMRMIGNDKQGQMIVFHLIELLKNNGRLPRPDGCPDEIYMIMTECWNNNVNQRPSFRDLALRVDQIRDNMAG

Compound	IC50 [1] [nM]	IC50 [2] [nM]	IC50 ([3]; Homo sapiens) [nM]	IC50 [3] [nM]
Cc1cnc(Nc2cnn(C)c2)nc1N1C[C@]2(C)CN(C(=O)[C@@H]3CC3(F)F)C[C@]2(C)C1 [Compound 56, ((S)-2,2-difluorocyclopropyl)((3aR,6aS)-3a,6a-dimethyl-5-(5-methyl-2-((1-methyl-1H-pyrazol-4-yl)amino)pyrimidin-4-yl)hexahydropyrrolo[3,4-c]pyrrol-2(1H)-yl)methanone]	2.5	1.7	505	–
CCNC(=O)c1ccc(Nc2ncc(F)c(N3C[C@]4(C)CN(C(=O)C5CC5(F)F)C[C@]4(C)C3)n2)cc1 (stereo partly drawn) [Compound 10, 4-((4-((3aR,6aS)-5-(2,2-difluorocyclopropane-1-carbonyl)-3a,6a-dimethylhexahydropyrrolo[3,4-c]pyrrol-2(IH)-yl)-5-fluoropyrimidin-2-yl)amino)-N-ethylbenzamide]	15	2.4	3800	–
C[C@@]12CN(C(=O)[C@@H]3CC3(F)F)C[C@]1(C)CN(c1nc(Nc3cn[nH]c3)ncc1Cl)C2 [Compound 29, ((3aR,6aS)-5-(2((1H-pyrazol-4-yl)amino)-5-chloropyrimidin-4-yl)-3a,6a-dimethylhexahydropyrrolo[3,4-c]pyrrol-2(1H)-yl)((S)-2,2-difluorocyclopropyl)methanone]	0.5	0.4	380	–
Cc1cnc(Nc2cnn(C)c2)nc1N1C[C@@]2(C)CN(S(C)(=O)=O)C[C@@]2(C)C1 [Compound 55, 4-((3aR,6aS)-3a,6a-dimethyl-5-(methylsulfonyl)hexahydropyrrolo[3,4-c]pyrrol-2(1H)-yl)-5-methyl-N-(1-methyl-1H-pyrazol-4-yl)pyrimidin-2-amine]	3.7	1.7	413	–
Cn1cc(Nc2ncc(Cl)c(N3C[C@@H]4CN(S(C)(=O)=O)C[C@]4(C)C3)n2)cn1 (racemic) [Compound 61, cis-5-chloro-N-(1-methyl-1H-pyrazol-4-yl)-4-(3a-methyl-5-(methylsulfonyl)hexahydropyrrolo[3,4-c]pyrrol-2(1H)-yl)pyrimidin-2-amine]	8.9	1.6	578	–
CCC(=O)N1C[C@@]2(C)CN(c3nc(Nc4cnn(C)c4)ncc3Cl)C[C@@]2(C)C1 [Compound 36, 1-((3aR.,6aS)-5-(5-chloro-2-((1-methyl-1H-pyrazol-4-yl)amino)pyrimidin-4-yl)-3a,6a-dimethylhexahydropyrrolo[3,4-c]pyrrol-2(1H)-yl)propan-1-one]	4.1	1.8	592	–
Cn1cc(Nc2ncc(Cl)c(N3C[C@@H]4CN(C(=O)C5CC5(F)F)C[C@]4(C)C3)n2)cn1 (mixture of isomers) [Compound 65, cis-(5-(5-chloro-2-((1-methyl-1H-pyrazol-4-yl)amino)pyrimidin-4-yl)-3a-methylhexahydropyrrolo[3,4-c]pyrrol-2(1H)-yl)((S)-2,2-difluorocyclopropyl)methanone]	1.3	0.5	136	–
Cn1cc(Nc2ncc(Cl)c(N3C[C@@H]4CN(C(=O)CC(F)(F)F)C[C@]4(C)C3)n2)cn1 (racemic) [Compound 68, cis-1-(5-(5-chloro-2((1-methyl-1H-pyrazol-4-yl)amino)pyrimidin-4-yl)-3a-methylhexahydropyrrolo[3,4-c]pyrrol-2(1H)-yl)-3,3,3-trifluoropropan-1-one]	31	1.4	330	–
Cn1cc(Nc2ncc(Cl)c(N3C[C@@H]4CN(Cc5ccno5)C[C@]4(C)C3)n2)cn1 (racemic) [Compound 74, cis-5-chloro-4-(5-(isoxazol-5-ylmethyl)-3a-methylhexahydropyrrolo[3,4-c]pyrrol-2(1H)-yl)-N-(1-methyl-1H-pyrazol-4-yl)pyrimidin-2-amine]	2.4	1.6	209	–

Continued by falling IC50 [1], values first:

IC50 [1] [nM]	IC50 [2] [nM]	IC50 ([3]; Homo sapiens) [nM]	IC50 [3] [nM]	Compound
477	186	8750	–	Cn1cc(Nc2ncc(Cl)c(N3C[C@]4(C)CN(CC5CC5)C[C@]4(C)C3)n2)cn1 [Compound 84, 5-chloro-4-((3aR,6aS)-5-(cyyclopropylmethyl)-3a,6a-dimethylhexahydropyrrolo[3,4-c]pyrrol-2(1H)-yl)-N-(1-methyl-1H-pyrazol-4-yl)pyrimidin-2-amine]
20	4.1	–	1070	cyclopropyl((3aR,6aS)-3a,6a-dimethyl-5-(5-methyl-2((1-methyl-1H-pyrazol-4-yl)amino)pyriraidin-4-yl)hexahydropyrrolo[3,4-c]pyrrol-2(1H)-yl)methanone [Compound 24]
17	5.3	1200	–	Cc1cnc(Nc2cnn(C)c2)nc1N1C[C@@H]2CN(C(=O)C3CC3)C[C@]2(C)C1 (racemic) [Compound 70, cis-cyclopropyl(3a-methyl-5-(5-methyl-2-((1-methyl-1H-pyrazol-4-yl)amino)pyrimidin-4-yl)hexahydropyrrolo[3,4-c]pyrrol-2(1H)-yl)methanone]
14	16	2870	–	Cc1noc(CN2C[C@@]3(C)CN(c4nc(Nc5cnn(C)c5)ncc4Cl)C[C@@]3(C)C2)n1 [Compound 82, 5-chloro-4-((3aR,6aS)-3a,6a-dimethyl-5-((3-methyl-1,2,4-oxadiazol-5-yl)methyl)hexahydropyrrolo[3,4-c]pyrrol-2(1H)-yl)-N-(1-methyl-1H-pyrazol-4-yl)pyrimidin-2-amine]
11	4.4	919	–	Cn1cc(Nc2ncc(Cl)c(N3C[C@]4(C)CN(C(=O)C5COC5)C[C@]4(C)C3)n2)cn1 [Compound 39, ((3aR,6aS)-5-(5-chloro-2-((1-methyl-1H-pyrazol-4-yl)amino)pyrimidin-4-yl)-3a,6a-dimethylhexahydropyrrolo[3,4-c]pyrrol-2(1H)-yl)(oxetan-3-yl)methanone]
1.8	0.6	287	–	Cn1cc(Nc2ncc(Cl)c(N3C[C@@]4(C)CN(S(C)(=O)=O)C[C@@]4(C)C3)n2)cn1 [Compound 34, 5-chloro-4-((3aR,6aS)-3a,6a-dimethyl-5-(methylsulfonyl)hexahydropyrrolo[3,4-c]pyrrol-2(1H)-yl)-N-(1-methyl-1H-pyrazol-4-yl)pyrimidin-2-amine]
0.9	1.2	1010	–	CN1CCC(n2cc(Nc3ncc(Cl)c(N4C[C@]5(C)CN(C(=O)C6CC6)C[C@]5(C)C4)n3)cn2)CC1 [Compound 16, ((3aR,6aS)-5-(5-chloro-2-((1-(1-methylpiperidin-4-yl)-1H-pyrazol-4-yl)amino)pyrimidin-4-yl)-3a,6a-dimethylhexahydropyrrolo[3,4-c]pyrrol-2(1H)-yl)(cyclopropyl)methanone]

— US12448382B2, “Heterocyclic compounds for mediating tyrosine kinase 2 activity” (GUANGZHOU INNOCARE PHARMA TECH CO., LTD., priority 2019, dated 2025)
